{
  "source": "patent US20140054163A1",
  "about": "“METHODS FOR REACTING CYSTEINE RESIDUES IN PEPTIDES AND PROTEINS” (University of George Risearch Foundation, Inc., priority 2012, published 2014)",
  "key": {"[1]": {"assay": "Aqueous solubility of NQMP derivatives", "settings": "wholly aqueous solutions"}, "[2]": {"assay": "Photochemical stability on irradiation in PBS, HPLC analysis", "format": "physicochemical", "settings": "0.1 mM PBS solutions irradiated separately for 12 minutes, 300 and 350 nm fluorescent lamps", "method": "It is important to note that peptide 4 and NQMP-TEG (1c) are photochemically stable under these conditions. […] Obviously, NQMP 1c still forms oNQM 2c but in the absence of thiols the latter rapidly undergoes hydration back to starting materials.\n0.1 mM PBS solutions of NQMP-TEG (2c) and peptide 4 were irradiated separately for 12 minutes using both 300 and 350 nm fluorescent lamps."}, "Papain from papaya latex [3]": {"molecular_target": "T1, Papain from papaya latex (Carica papaya, UniProt P00784)", "T1 construct": "from tissue; host or cells: papaya latex", "T1 sequence (P00784 134-345)": "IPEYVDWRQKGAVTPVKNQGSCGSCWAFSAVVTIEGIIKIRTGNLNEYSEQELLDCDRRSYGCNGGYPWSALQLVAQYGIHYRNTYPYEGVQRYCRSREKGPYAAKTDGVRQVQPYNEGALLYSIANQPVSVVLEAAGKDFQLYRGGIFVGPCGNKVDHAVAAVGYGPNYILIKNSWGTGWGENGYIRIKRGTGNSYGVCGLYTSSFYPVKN", "assay": "Photochemical inhibition of papain activity by NQMP-TEG (L-BAPNA hydrolysis rate)", "format": "biochemical", "settings": "for Relative activity: PBS", "method": "(§1) Papain was activated by incubation the enzyme with 100-40 fold excess of free cysteine for 45 minutes in PBS solution. The concentration of the papain in the stock solution was determined by its […] at 280 nm (s=57600 M^−1 cm^−1) (Pace et. al., Protein Sci. 1995, 4:2411-2423). The activity of the protease was measured using N-α-benzoyl-L-arginine-p-nitroanilide (L-BAPNA). […] The formation of the latter can be followed by the rise of characteristic absorbance at 410 nm (ε=9800). Water-soluble NQMP-TEG (FIG. 13) was employed for inhibition experiments.\nA PBS solution containing 1.7 μM of papain, 80 μM of cysteine and variable amounts of NQMP-TEG was irradiated for 2 minutes with 350 nm fluorescent lamps. A stock solution of BAPNA was then added to a photolysate to achieve 800 μM concentration of the substrate and rate of hydrolysis was measured (Table 5, FIG. 14).\nA PBS solution containing 0.91 μM of papain, 44 μM of cysteine and 109 μM of NQMP-TEG was irradiated for 2, 3 or 4 minutes with 350 nm fluorescent lamps. A stock solution of BAPNA was then added to a photolysate to achieve 200 μM concentration of the substrate and rate of hydrolysis was measured (Table 6, FIG. 15)."}, "Papain from papaya latex [4]": {"molecular_target": "T1, Papain from papaya latex", "assay": "Photochemical restoration (re-activation) of NQMP-inhibited papain activity", "format": "biochemical", "settings": "for Papain Activity: photolysate with inhibited papain, NQMP-TEG, cysteine plus 2-(2-(vinyloxy)ethoxy)ethanol equal to initial NQMP-TEG", "method": "as §1\nA sample of deactivated papain was prepared as described above. The protein was separated from low molecular weight compounds using gel filtration (Sephadex PD-10 column). To check for the completeness of inhibition an excess of cysteine was added to a PBS solution of the inhibited papain and incubated for 45 minutes. […] This solution was then re-irradiated with 350 nm fluorescent lamps for 15 minutes.\nAlternatively, re-activation of papain was achieved without isolation of inhibited enzyme. Ethyl vinyl ether derivative, 2-(2-(vinyloxy)ethoxy)ethanol, was added to a photolysate containing inhibited papain, NQMP-TEG, and cysteine in PBS solution. The amount of vinyl ether added was equal to the initial amount of NQMP-TEG."}, "[5]": {"assay": "Cysteine specificity of NQMP photo-click reaction, peptides lacking free cysteine", "settings": "irradiation of peptides 6 and 7 with 4 to 12 equivalents of NQMP-TEG, HPLC analysis", "method": "To test the cysteine specificity of NQMP photo-click reaction, two analogs of peptide 4 containing the same amino acid sequence but lacking free cysteine were prepared. In nonapeptide 6 cysteine residue was replaced with methionine, while the thiol group in 4 was converted into disulfide bond by oxidative dimerization to form oligopeptide 7. […] These experiments show the high specificity of addition of photochemically generated oNQM to cysteine thiol group.\n0.1 mM PBS solutions of peptides 4, 6, and 7 were irradiated with 300 or 350 nm fluorescent lamps in the presence of variable amounts of NQMP-TEG (2c, 0.1-0.4 mM). Composition of the photolysates was analyzed using HPLC (FIG. 17). Peptide 4-NQMP-TEG conjugate (5) was isolated using semi-prep C-18 HPLC column and characterized by ESI-HRMS (FIG. 18). The concentration of labeled peptide 5 was determined by UV spectroscopy using characteristic 330 nm band of NQMP chromophore. This solution was then used in calibration of HPLC instruments."}},
  "data": [
    {"molecule": "OCc1cc2cccc(O)c2cc1O", "note": "[1b, 6-(hydroxymethyl)naphthalene-1,7-diol]", "values": [
      {"measurement": "Aqueous solubility", "setting": "[1]", "result": "rather low aqueous solubility"}
    ]},
    {"molecule": "Ac-Cys-Lys-Tyr-Trp-Gly-Arg-Asp-Ser-NH2 (Ac-CKYWGRDS-NH2) [compound 4]", "values": [
      {"measurement": "Photochemical stability (decomposition or losses by HPLC)", "setting": "[2]", "result": "No decomposition or losses of materials were detected"}
    ]},
    {"molecule": "8-TEG-3-(hydroxymethyl)naphthalen-2-ol [NQMP-TEG]", "values": [
      {"measurement": "Relative activity", "setting": "Papain from papaya latex [3]; 100 μM NQMP-TEG, 1.7 μM papain, 80 μM cysteine, 2 minutes irradiation at 350 nm, 800 μM BAPNA", "result": 65, "unit": "%"},
      {"measurement": "Relative activity", "setting": "Papain from papaya latex [3]; 109 μM NQMP-TEG, 0.91 μM papain, 44 μM cysteine, 2 minutes irradiation at 350 nm, 200 μM BAPNA", "result": 52, "unit": "%"},
      {"measurement": "Relative activity", "setting": "Papain from papaya latex [3]; 109 μM NQMP-TEG, 0.91 μM papain, 44 μM cysteine, 3 minutes irradiation at 350 nm, 200 μM BAPNA", "result": 27, "unit": "%"},
      {"measurement": "Relative activity", "setting": "Papain from papaya latex [3]; 109 μM NQMP-TEG, 0.91 μM papain, 44 μM cysteine, 4 minutes irradiation at 350 nm, 200 μM BAPNA", "result": 0, "unit": "%"},
      {"measurement": "Relative activity", "setting": "Papain from papaya latex [3]; 109 μM NQMP-TEG, 0.91 μM papain, 44 μM cysteine, irradiation time 0 minutes, 200 μM BAPNA", "result": 100, "unit": "%"},
      {"measurement": "Relative activity", "setting": "Papain from papaya latex [3]; 150 μM NQMP-TEG, 1.7 μM papain, 80 μM cysteine, 2 minutes irradiation at 350 nm, 800 μM BAPNA", "result": 48, "unit": "%"},
      {"measurement": "Relative activity", "setting": "Papain from papaya latex [3]; 200 μM NQMP-TEG, 1.7 μM papain, 80 μM cysteine, 2 minutes irradiation at 350 nm, 800 μM BAPNA", "result": 43, "unit": "%"},
      {"measurement": "Relative activity", "setting": "Papain from papaya latex [3]; 250 μM NQMP-TEG, 1.7 μM papain, 80 μM cysteine, 2 minutes irradiation at 350 nm, 800 μM BAPNA", "result": 27, "unit": "%"},
      {"measurement": "Relative activity", "setting": "Papain from papaya latex [3]; 300 μM NQMP-TEG, 1.7 μM papain, 80 μM cysteine, 2 minutes irradiation at 350 nm, 800 μM BAPNA", "result": 17, "unit": "%"},
      {"measurement": "Relative activity", "setting": "Papain from papaya latex [3]; 400 μM NQMP-TEG, 1.7 μM papain, 80 μM cysteine, 2 minutes irradiation at 350 nm, 800 μM BAPNA", "result": 0, "unit": "%"},
      {"measurement": "Concentration required to completely inhibit the activity of Papain", "setting": "Papain from papaya latex [3]; 2 minutes of irradiation at 350 nm, 1.7 μM papain, 80 μM cysteine", "result": "about 350 μM"},
      {"measurement": "Papain Activity", "setting": "Papain from papaya latex [4]; 350 nm irradiation 0 minutes", "result": 0, "unit": "%"},
      {"measurement": "Papain Activity", "setting": "Papain from papaya latex [4]; 350 nm irradiation 3 minutes", "result": 28, "unit": "%"},
      {"measurement": "Papain Activity", "setting": "Papain from papaya latex [4]; 350 nm irradiation 4 minutes", "result": 40, "unit": "%"},
      {"measurement": "Papain Activity", "setting": "Papain from papaya latex [4]; 350 nm irradiation 5 minutes", "result": 47, "unit": "%"},
      {"measurement": "Papain Activity", "setting": "Papain from papaya latex [4]; 350 nm irradiation 7 minutes", "result": 58, "unit": "%"},
      {"measurement": "Papain Activity", "setting": "Papain from papaya latex [4]; 350 nm irradiation 8 minutes", "result": 76, "unit": "%"},
      {"measurement": "Photochemical stability (decomposition or losses by HPLC)", "setting": "[2]", "result": "No decomposition or losses of materials were detected"},
      {"measurement": "Labeling of peptides lacking free cysteine (selectivity)", "setting": "[5]", "result": "produced no labeled products"},
      {"measurement": "Aqueous solubility", "setting": "[1]", "result": "freely soluble in wholly aqueous solutions up to millimolar concentrations"}
    ]},
    {"molecule": "OCc1cc2ccccc2cc1O", "note": "[1a, 3-hydroxy-2-naphthalenemethanol]", "values": [
      {"measurement": "Aqueous solubility", "setting": "[1]", "result": "rather low aqueous solubility"}
    ]},
    {"molecule": "inhibited papain: papain deactivated by irradiation with NQMP-TEG; a single NQMP-TEG unit added as thioether (conjugate, UniProt P00784 134-345, looked up, NQMP-TEG thioether adduct, inactivated) Papain: IPEYVDWRQKGAVTPVKNQGSCGSCWAFSAVVTIEGIIKIRTGNLNEYSEQELLDCDRRSYGCNGGYPWSALQLVAQYGIHYRNTYPYEGVQRYCRSREKGPYAAKTDGVRQVQPYNEGALLYSIANQPVSVVLEAAGKDFQLYRGGIFVGPCGNKVDHAVAAVGYGPNYILIKNSWGTGWGENGYIRIKRGTGNSYGVCGLYTSSFYPVKN", "values": [
      {"measurement": "Protease activity (L-BAPNA cleavage) after incubation with excess cysteine", "setting": "Papain from papaya latex [4]; gel-filtered inhibited papain in PBS, excess of cysteine, 45 minutes, no re-irradiation", "result": "does not cleave L-BAPNA"},
      {"measurement": "Restoration of papain activity relative to wild type papain", "setting": "Papain from papaya latex [4]; gel-filtered inhibited papain, no NQMP reagent, re-irradiated with 350 nm lamps for 15 minutes", "result": "85-92%"}
    ]}
  ]
}
